Data: patent US11559527B2 (priority 2017, dated 2023)

Tests used:
Format in all cases: cell-based, Human
MCF7 cells [1] = assay: Scratch assay (wound closure, migration); settings: 48 hours, vs vehicle
Text: It is though that CSCs are responsible for metastatic spread and growth. Emerging evidence highlights the role of mitochondrial dynamics in tumor cell dissemination. […] In migrating cancer cells mitochondria accumulate at the leading edge where processes requiring high energy occur, such as formation of focal adhesions. Fission seems to be a prerequisite for that efficient relocation of mitochondria. Indeed, upregulation/activation of DRP1 is associated with a migratory and invasive phenotype in cancer. […] Through a scratch assay, were cells were cultured in the presence of either vehicle or mDIVI-1. The scratch was monitored over time and the percentage of wound closure was measured as described previously.
SCRATCH ASSAY: A hundred thousand MCF7 cells per well were seeded in 12-well plates. When cells were attached, a horizontal scratch was performed using the tip of a pipette. Immediately after, the media was removed and either fresh vehicle-containing media or mDIVI-1-containing media were added to the cells for 48 hours. Four replicates were used for each condition. […] The wound closure was monitored by taking pictures of each well every 4 hours. At the end of the treatment, pictures of the wells at 0 and 48 hours were analysed using ImageJ software to calculate wound closure according to the following formula: Percentage wound closure=[(wound area0 h−wound area48 h)/wound area0 h]×100.

[2] = PrestoBlue viability assay; settings: human, MCF7 breast cancer cells, read-out: reduction of MCF7 cell viability
Procedure: (§1) The inventors sought to evaluate whether mDIVI-1-induced inhibition of DRP1 has repercussion on the viability of MCF7 cells. […] Similar results were obtained using the Bradford assay, which measures protein content, as an indicator of cell viability.
(§2) CELL CULTURE: Human MCF7 breast cancer cells were purchased from ATCC and maintained in complete media: DMEM (D6546, Sigma) supplemented with 10% fetal bovine serum (F7524, Sigma), 100 units/ml of penicillin, 100 μg/ml, streptomycin (P0781, Sigma) and 1% Glutamax (#35050087, Life Technologies). For all experiments, cells were incubated in a 5% CO2 atmosphere at 37° C.
(§3) PRESTOBLUE VIABILITY ASSAY: Cell viability was measured using the resazurin-based PrestoBlue reagent (A-13261, ThermoFisher Scientific). Briefly, 5×10^3 MCF7 cells were seeded into 96-well black plates. When cells were attached mDIVI-1 or vehicle were added to the cells. After 2 or 5 days, PrestoBlue reagent was added to the cells and incubated for 2 hours. Plates were finally read using a FluoStar Omega plate reader (BMG Labtech) at an excitation wavelength of 544 and an emission wavelength of 590 nm. Background measurements were subtracted from all values.

MCF7 cells [3] = assay: PrestoBlue viability assay; settings: 10 μM, 48 hours
Procedure: as §1, §2, §3

Notch signaling = assay: Luciferase reporter assay MCF7-GFP-Rbp/Jk(luc); settings: 50 μM, 2 and 5 days
Text: Mitochondrial fusion and fission may also have an impact in signaling pathways that regulate stem cell proliferation and survival. […] A range of reporter MCF7-GFP cell lines were generated, including MCF7-GFP-GLI(luc), MCF7-GFP-Rbp/Jk(luc), MCF7-GFP-SMAD(luc) and MCF7-GFP-TCF/LEF(luc), to assess Hedgehog signaling, Notch signaling, TGFβ signaling, and Wnt signaling, respectively. […] The data is shown in the four data plots in FIG. 9.
LUCIFERASE ASSAY: The Cignal Lenti reporter assay (luc) was used to monitor the activity of several signalling pathways in MCF7-GFP cells as explained previously. Luciferase Assay System (E1501, Promega) was performed according to manufacturer's instructions. 1×10^4 MCF7 […] were seeded in black-walled 96 well plates. When cells were attached, drug treatments were added for 18, 48 hours and 5 days. After treatment, Luciferase Assay was performed according to manufacturer's instructions and light signal was acquired in the Xenogen VivoVision IVIS Lumina. Results were normalized by SRB staining of cells grown in 96-well plates in parallel.
SULFORHODAMINE B (SRB) ASSAY: SRB (S9012, Sigma) measures total biomass by staining cellular proteins. […] Absorbance was spectrophotometrically measured at 562 nm in a FluoStar Omega plate reader (BMG Labtech). […]

In the case of COc1cc(-n2c(S)nc3ccccc3c2=O)c(Cl)cc1Cl [mDIVI-1, 3-(2,4-Dichloro-5-methoxyphenyl)-2-sulfanyl-4(3H)-quinazolinone], the “reduction of percentage of wound closure” value (MCF7 cells [1]; 10 μM) is reported as 14%, the “reduction of percentage of wound closure” value (MCF7 cells [1]; 50 μM) is reported as 44% and the cytotoxicity at 5 days, 10 μM ([2]; 10 μM, five days) is reported as 20%. The cytotoxicity at 48 h, 50 μM ([2]; 50 μM, 48 hours) was 20%, the cytotoxicity at 5 days, 50 μM ([2]; 50 μM, five days) was > 65% and the cytotoxicity at 48 h, 100 μM ([2]; 100 μM, 48 hours) was 20%. The cytotoxicity at 5 days, 100 μM ([2]; 100 μM, five days) was 85%, the “viability of MCF7 cells” value (MCF7 cells [3]) was “did not decrease” and the “Notch/Rbp pathway luciferase activity” value (Notch signaling) was “inhibition”.
